From ChEMBL document CHEMBL1201862, “PubChem BioAssay data set” (2004)
Active and inactive are the calls of the source.

Experiments:
Cytochrome P450 2C19 = Cytochrome P450 2C19 (Homo sapiens, UniProt P33261); test: qHTS Assay for Inhibitors and Substrates of Cytochrome P450 2C19. [Related pubchem assays: 410 ]; type: ADME; conditions: read-out: Potency
Cytochrome P450 2D6 = Cytochrome P450 2D6 (Homo sapiens, UniProt P10635); test: qHTS Assay for Inhibitors and Substrates of Cytochrome P450 2D6. [Related pubchem assays: 410 ]; type: ADME; conditions: read-out: Potency
Chain of Cytochrome P450 2D6 (P10635 whole entry): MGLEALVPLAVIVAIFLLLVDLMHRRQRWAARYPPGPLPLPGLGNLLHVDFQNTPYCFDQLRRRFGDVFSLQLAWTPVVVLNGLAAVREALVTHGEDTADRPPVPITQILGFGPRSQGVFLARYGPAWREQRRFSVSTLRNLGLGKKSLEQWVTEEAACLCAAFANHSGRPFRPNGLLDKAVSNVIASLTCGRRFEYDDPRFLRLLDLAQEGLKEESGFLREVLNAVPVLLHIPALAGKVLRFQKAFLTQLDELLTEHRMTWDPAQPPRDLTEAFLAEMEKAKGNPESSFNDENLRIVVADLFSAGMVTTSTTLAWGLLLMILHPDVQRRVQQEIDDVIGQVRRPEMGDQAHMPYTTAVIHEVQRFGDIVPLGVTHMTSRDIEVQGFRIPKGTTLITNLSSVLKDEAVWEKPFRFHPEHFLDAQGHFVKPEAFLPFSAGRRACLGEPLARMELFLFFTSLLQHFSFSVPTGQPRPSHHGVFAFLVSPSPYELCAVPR

Cytochrome P450 3A4 = Cytochrome P450 3A4 (Homo sapiens, UniProt P08684); conditions: Potency;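 also: confirmatory qHTS run detecting inhibitors and substrates of CYP3A4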
Chain of Cytochrome P450 3A4 (P08684 whole entry): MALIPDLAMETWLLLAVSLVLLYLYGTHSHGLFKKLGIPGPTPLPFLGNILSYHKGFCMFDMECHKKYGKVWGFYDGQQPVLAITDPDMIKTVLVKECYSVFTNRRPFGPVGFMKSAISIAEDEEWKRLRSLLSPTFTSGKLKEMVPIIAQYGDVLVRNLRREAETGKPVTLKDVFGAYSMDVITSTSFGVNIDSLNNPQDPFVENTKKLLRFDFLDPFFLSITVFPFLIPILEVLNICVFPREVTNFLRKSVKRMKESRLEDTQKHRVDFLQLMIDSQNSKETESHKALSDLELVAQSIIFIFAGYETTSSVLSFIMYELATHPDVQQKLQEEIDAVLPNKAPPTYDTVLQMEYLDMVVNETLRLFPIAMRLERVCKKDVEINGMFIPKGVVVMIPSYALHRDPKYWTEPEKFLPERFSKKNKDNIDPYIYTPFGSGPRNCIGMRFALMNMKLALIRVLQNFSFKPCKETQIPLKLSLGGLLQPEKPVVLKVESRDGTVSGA

Cytochrome P450 2C9 = Cytochrome P450 2C9 (Homo sapiens, UniProt P11712); conditions: Potency
Chain of Cytochrome P450 2C9 (P11712 whole entry): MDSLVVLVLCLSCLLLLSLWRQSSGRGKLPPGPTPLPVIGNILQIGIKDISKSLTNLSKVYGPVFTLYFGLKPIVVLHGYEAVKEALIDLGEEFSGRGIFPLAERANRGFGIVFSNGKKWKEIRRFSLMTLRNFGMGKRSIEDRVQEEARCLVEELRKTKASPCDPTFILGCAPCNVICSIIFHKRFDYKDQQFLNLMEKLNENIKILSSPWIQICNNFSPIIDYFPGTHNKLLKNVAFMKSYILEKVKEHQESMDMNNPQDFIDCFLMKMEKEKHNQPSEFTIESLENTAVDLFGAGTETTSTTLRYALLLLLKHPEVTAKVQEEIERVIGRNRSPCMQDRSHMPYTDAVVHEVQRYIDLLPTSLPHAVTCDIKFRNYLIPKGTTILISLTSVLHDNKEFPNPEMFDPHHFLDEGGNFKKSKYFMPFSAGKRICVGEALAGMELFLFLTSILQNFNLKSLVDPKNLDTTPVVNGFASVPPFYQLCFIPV

Leucine aminopeptidase = biological target: T1, Leucine aminopeptidase (Plasmodium falciparum 3D7, UniProt Q8IL11); test: P. falciparum M17LAP inhibitors, primary screen, biochemical, fluorogenic H-Leu-NHMec substrate, 1536-well (AID 1619); type: functional
T1 sequence (Q8IL11 whole entry): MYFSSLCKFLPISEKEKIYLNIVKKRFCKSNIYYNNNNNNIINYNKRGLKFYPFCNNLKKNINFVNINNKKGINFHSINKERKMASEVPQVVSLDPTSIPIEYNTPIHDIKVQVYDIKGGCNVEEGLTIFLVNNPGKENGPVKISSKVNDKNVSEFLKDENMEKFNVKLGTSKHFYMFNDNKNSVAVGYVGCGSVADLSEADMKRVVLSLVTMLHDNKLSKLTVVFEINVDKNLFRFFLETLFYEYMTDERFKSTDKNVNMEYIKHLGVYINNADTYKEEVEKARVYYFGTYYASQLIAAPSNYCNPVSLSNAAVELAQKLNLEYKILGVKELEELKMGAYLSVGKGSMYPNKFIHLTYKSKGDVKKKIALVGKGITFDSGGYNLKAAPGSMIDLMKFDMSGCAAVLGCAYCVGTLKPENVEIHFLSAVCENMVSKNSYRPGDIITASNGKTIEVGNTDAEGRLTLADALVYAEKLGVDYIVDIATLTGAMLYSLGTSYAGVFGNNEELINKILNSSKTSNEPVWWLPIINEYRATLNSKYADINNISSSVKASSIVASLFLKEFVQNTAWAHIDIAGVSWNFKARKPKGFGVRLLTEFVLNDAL

[1] = luciferase reporter signal suppression in cells – H4 neuroglioma cells, luminescence, dose response (AID 1990); type: functional, cell-based
[2] = luciferase reporter signal reduction – luminescence, H4-C neuroglioblastoma cells, dose response (AID 2458); type: functional, cell-based;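 also: H4 neuroglioblastoma cells stably carrying a luciferase reporter gene fusion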
cells = type: functional, cell-based
[3] = Luminescence Cell-Based Dose Response HTS to Identify Inhibitors of 5'UTR Stem-Loop Driven Prion Protein mRNA Translation in H4 Neuroglioblastoma Cells. [Related pubchem assays: 1827 (Project Summary), 1813 (Primary HTS)]; type: functional
[4] = biological target: T2, Heat shock factor protein 1 (Mus musculus, UniProt P38532); test: decrease of HSF1-responsive luciferase luminescence – cell-based, NIH3T3, dose retest, confirmation (AID 2382); type: functional;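 also: NIH3T3 fibroblasts with HSF1-driven luciferase reporter stressed by proteasome inhibitor MG132; luminescence from HSF1-driven luciferase expression after 8 hours of MG132 stress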
T2 sequence (P38532 whole entry): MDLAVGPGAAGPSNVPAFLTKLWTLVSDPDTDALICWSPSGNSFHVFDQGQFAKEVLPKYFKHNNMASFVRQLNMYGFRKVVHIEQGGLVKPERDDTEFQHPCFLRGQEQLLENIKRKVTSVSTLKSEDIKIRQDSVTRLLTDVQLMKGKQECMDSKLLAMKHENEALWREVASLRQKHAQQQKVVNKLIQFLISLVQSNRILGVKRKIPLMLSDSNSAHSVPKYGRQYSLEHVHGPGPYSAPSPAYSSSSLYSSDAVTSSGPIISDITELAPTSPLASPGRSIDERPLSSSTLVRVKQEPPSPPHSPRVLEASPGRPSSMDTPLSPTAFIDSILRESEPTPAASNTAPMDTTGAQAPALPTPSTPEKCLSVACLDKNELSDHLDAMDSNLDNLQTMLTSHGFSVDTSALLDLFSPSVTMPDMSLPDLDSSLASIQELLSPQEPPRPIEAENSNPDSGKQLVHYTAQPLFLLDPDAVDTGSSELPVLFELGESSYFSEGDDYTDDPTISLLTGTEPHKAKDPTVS

[5] = alpha-synuclein stem-loop luciferase translation blockers – H4 neuroglioma cells, luminescence, confirmation (AID 1988); type: functional, cell-based
[6] = alpha-synuclein stem-loop translation blockers – luminescence, H4 neuroglioblastoma cells, dose confirmation, confirmation (AID 2454); type: functional, cell-based;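 also: H4 neuroglioblastoma cells carrying an alpha-synuclein 5'UTR luciferase reporter; potency for inhibition of the luciferase signal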
BJ = test: growth inhibition of engineered Ras-driven BJ cells – cell-based, alamar blue fluorescence, cherrypicked samples, dose response (AID 2631); type: functional; conditions: Homo sapiens;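 also: confirmatory dose-response assay in RAS-dependent BJ fibroblasts engineered with TERT, LT and ST, with cytotoxicity read by fluorescence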
[7] = reduction of Shn3 3'UTR-driven luciferase in osteoblasts – cell-based, Clone20 osteoblasts, firefly luciferase, cherry-picked, dose response (AID 624132); type: functional;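 also: firefly luciferase luminescence from reporter carrying the Shn3 3'UTR in osteoblasts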
[8] = loss of viability in HepG2 cells – cell-based, CellTiter-Glo, cherry-picked, cytotoxicity control for Shn3 inhibitor project, dose response (AID 624134); type: functional
[9] = non-specific 3'UTR reporter inhibition in Clone20-Shn3RL – cell-based, Renilla luciferase, cherry-picked, counter-screen for Shn3 inhibitor project, dose response (AID 624133); type: functional
[10] = A549 cell cytotoxicity, dose response, cytotoxicity control, plate reader, cherry-pick, antagonist series (AID 743412); type: functional, cell-based
[11] = toxicity toward HepG2 liver cells – cell-based, plate reader, cherry-pick, antagonist series, cytotoxicity control, dose response (AID 743416); type: functional
[12] = blockers of bursicon-stimulated LGR2 cAMP reporter – cell-based, HEK293, CRE-luciferase reporter, cherry pick, set 2, dose response (AID 743343); type: functional;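 also: transfected cells were stimulated with diluted bursicon conditioned medium after compound addition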
[13] = blockade of melanocortin 4 receptor signaling – cell-based, plate reader, cherry pick, counter-screen for LGR2 antagonist project, dose response (AID 743444); type: functional;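 also: transfected HEK 293 cells stimulated with alpha-MSH peptide; potency of inhibitors of the alpha-MSH evoked signal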
[14] = viability loss in HEK293 cells – cell-based, plate reader, cherry-picked samples, cytotoxicity control, dose response (AID 743446); type: functional
HeLa = test: viability loss in HeLa cells – cell-based, 24 h, cherry-picked samples, cytotoxicity control, dose response (AID 504726); type: functional; conditions: Homo sapiens;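 also: potency for cytotoxicity as loss of luminescence signal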
Caspase-6 = Caspase-6 (Homo sapiens, UniProt P55212); test: inhibition of CASP6 peptide cleavage – biochemical, VEID-R110 fluorescence, cherry-pick, dose response (AID 720632)
Chain of Caspase-6 (P55212 24-179 limits assumed): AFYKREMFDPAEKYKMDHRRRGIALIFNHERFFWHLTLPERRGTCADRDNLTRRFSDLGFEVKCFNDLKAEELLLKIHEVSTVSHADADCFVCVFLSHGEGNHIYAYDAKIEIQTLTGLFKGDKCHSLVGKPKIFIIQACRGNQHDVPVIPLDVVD
Chain of Caspase-6 (P55212 194-293 limits assumed): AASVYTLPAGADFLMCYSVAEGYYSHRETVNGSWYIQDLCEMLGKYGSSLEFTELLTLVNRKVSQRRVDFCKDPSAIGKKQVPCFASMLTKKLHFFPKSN

[15] = biological target: T3, Histone-lysine N-methyltransferase NSD2 (Homo sapiens, UniProt O96028); type: biochemical
T3 sequence (O96028 whole entry): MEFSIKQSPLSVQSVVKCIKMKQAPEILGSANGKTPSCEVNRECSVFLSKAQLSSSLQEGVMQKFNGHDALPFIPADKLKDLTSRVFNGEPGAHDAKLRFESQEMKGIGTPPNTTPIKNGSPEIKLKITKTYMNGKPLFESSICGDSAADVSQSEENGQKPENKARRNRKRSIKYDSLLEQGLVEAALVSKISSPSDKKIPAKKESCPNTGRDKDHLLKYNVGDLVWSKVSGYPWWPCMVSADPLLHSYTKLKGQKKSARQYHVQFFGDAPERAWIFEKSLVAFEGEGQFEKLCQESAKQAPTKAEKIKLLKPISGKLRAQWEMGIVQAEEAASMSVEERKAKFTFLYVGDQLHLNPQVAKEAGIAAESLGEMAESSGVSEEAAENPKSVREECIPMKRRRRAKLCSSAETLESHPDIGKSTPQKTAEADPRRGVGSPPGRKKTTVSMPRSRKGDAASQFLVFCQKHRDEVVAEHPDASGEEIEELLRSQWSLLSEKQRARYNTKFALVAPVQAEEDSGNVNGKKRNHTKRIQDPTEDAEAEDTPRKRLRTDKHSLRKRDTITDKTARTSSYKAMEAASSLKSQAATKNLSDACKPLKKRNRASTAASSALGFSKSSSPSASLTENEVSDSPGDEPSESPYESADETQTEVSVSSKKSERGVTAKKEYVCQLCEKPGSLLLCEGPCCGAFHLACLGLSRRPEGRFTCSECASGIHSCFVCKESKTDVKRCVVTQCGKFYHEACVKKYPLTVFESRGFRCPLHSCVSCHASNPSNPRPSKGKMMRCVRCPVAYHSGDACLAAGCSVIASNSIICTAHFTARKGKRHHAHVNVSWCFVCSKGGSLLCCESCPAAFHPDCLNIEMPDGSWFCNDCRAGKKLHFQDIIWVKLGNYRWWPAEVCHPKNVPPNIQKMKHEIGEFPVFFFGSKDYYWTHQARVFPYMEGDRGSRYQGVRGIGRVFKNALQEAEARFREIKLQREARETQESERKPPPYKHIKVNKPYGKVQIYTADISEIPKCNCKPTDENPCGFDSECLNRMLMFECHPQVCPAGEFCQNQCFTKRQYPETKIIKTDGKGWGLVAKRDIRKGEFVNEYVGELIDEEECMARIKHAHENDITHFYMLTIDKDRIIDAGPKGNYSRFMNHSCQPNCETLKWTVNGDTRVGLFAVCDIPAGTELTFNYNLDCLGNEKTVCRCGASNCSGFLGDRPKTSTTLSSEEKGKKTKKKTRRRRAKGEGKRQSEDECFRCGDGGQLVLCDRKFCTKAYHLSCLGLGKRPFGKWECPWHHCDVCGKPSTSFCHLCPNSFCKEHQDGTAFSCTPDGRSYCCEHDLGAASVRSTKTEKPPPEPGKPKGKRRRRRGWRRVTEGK

[16] = biological target: G-protein coupled receptor 35 (Homo sapiens, UniProt Q9HC97); test: inhibition of zaprinast-stimulated GPR35 beta-arrestin translocation – imaging, U2OS, beta-arrestin-GFP, zaprinast agonist, primary screen (AID 2058); type: functional;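 also: antagonist potency meaning inhibition of agonist-induced arrestin redistribution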
Chain of G-protein coupled receptor 35 (Q9HC97 whole entry): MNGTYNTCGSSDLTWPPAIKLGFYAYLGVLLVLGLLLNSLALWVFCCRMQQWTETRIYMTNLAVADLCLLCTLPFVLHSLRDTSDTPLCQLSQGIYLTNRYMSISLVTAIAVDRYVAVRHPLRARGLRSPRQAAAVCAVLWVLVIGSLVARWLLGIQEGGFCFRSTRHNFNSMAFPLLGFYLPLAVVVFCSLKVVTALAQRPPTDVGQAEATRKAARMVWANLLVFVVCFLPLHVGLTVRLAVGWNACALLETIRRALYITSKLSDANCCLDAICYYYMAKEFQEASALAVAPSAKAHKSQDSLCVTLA

[17] = test system: Streptococcus sp. 'group A'; test: Streptococcus pyogenes SK(-)GAS viability under kanamycin – luminescence, BacTiterGlo, confirmation, counter-screen for streptokinase expression inhibitor project, dose response (AID 1900); type: functional, organism-based
Streptococcus = test: GAS UMAA2166 growth inhibition – luminescence, BacTiterGlo, counter-screen for streptokinase expression inhibitor project, dose response (AID 1915); type: functional, organism-based;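 also: potency for reduction of bacterial viability or growth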
[18] = Luminescence Cell-Based Dose Retest to Confirm Inhibitors of Cancer Stem Cells. [Related pubchem assays (depositor defined):AID2717, AID2721]; type: functional; conditions: Homo sapiens

Chain of Cytochrome P450 2C19 (P33261 whole entry): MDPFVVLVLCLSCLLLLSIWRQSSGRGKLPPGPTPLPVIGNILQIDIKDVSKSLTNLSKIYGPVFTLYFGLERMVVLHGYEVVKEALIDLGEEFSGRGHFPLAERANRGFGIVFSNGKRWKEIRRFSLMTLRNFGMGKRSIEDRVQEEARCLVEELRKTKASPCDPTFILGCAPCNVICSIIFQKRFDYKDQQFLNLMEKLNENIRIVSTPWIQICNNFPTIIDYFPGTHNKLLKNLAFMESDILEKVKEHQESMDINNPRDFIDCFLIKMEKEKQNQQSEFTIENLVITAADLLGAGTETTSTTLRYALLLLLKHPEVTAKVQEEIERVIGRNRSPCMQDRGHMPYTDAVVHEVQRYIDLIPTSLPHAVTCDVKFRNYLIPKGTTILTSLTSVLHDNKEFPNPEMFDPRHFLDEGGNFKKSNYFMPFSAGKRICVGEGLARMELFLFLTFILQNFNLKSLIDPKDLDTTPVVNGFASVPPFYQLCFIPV

COC(=O)NC(/C(C(=O)OC)=C(\C)NCc1ccccc1)c1ccccc1 (stereo unspecified)
AC50 (Cytochrome P450 2C19): 0.0079 µM (inconclusive)
AC50 (Cytochrome P450 2D6): 3.98 µM (inconclusive)
AC50 (Cytochrome P450 3A4): 3.98 µM (inconclusive)
AC50 (Cytochrome P450 2C9): 3.16 µM (inconclusive)

CCOc1ccc(OCc2cccc(C(=O)O)c2)cc1
IC50 (Leucine aminopeptidase): 24.8 µM (active)
EC50 [1]: < 0.1 µM (active)
EC50 [2]: 0.072 µM (active)
EC50 (cells): 0.101 µM (active)
EC50 [3]: < 0.1 µM (active)
EC50 [4]: < 0.16 µM (active)
EC50 [5]: < 0.1 µM (active)
EC50 [6]: 0.038 µM (active)
EC50 (BJ): > 133 µM (inactive)
AC50 [7]: 0.649 µM (active)
AC50 [8]: 16.9 µM (active)
AC50 [9]: 21.4 µM (active)
AC50 [10]: 21.7 µM (active)
AC50 [11]: 31 µM (active)
AC50 [12]: 0.118 µM (active)
AC50 [13]: 0.137 µM (active)
AC50 [14]: 18.9 µM (active)

COC(=O)C(/C=C/C(C)Cc1cc(Br)cc(OCc2ccccc2)c1OC)OCc1ccccc1 (stereo unspecified)
AC50 (Cytochrome P450 3A4): 3.16 µM (inconclusive)
AC50 (Cytochrome P450 2C9): 3.16 µM (inconclusive)

CCN(C(=O)COC(=O)c1ccc([N+](=O)[O-])o1)C1CCCCC1
AC50 (HeLa): > 350 µM (inactive)
AC50 (Caspase-6): 34.1 µM (active)
AC50 [15]: > 20 µM (inactive)

CC12CCC(C/C1=N\NC1=NC(=O)/C(=C\c3ccc(Cl)cc3)S1)C2(C)C (stereo unspecified)
IC50 [16]: 13.9 µM (inactive)
EC50 [17]: 1.18 µM (active)
EC50 [4]: 1.2 µM (active)
EC50 (Streptococcus): 2.34 µM (active)
AC50 [18]: 2.16 µM (active)
